Data on 1 compound can be found in ChEMBL document CHEMBL6121032, “Mining Druggable Sites in Influenza A Hemagglutinin: Binding of the Pinanamine-Based Inhibitor M090” (ACS Med Chem Lett, 2025).

For this assay, the system named is Influenza A virus. In words: Antiviral activity against Influenza virus A/WSN/33 expressing M2 S31N mutant channel infected in MDCK cells by plaque reduction assay. The class given is functional, organism-based. On the technique in general: Plaque reduction counts the foci of infection that form in a cell layer.

Take `Brc1ccc(CNC23CC4CC(CC(C4)C2)C3)s1`: the EC50 – broadly, the midpoint of the concentration-response curve – was determined as 1800 µM.
